Assay results reported in ChEMBL document CHEMBL1201862, “PubChem BioAssay data set” (2004).
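Cultured in 96-well plates, cells were exposed to test compound for 48 hours across five concentrations. At the GI50, growth is halved.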 Calls of active or inactive are those of the source. No stated cut-off is given here; in the data, active = GI50 up to about 1.1 µM and inactive = higher.

Assays:
Test in all cases: NCI tumour cell line growth inhibition, 48 h
SK-MEL-28 = test system: SK-MEL-28
A549 = test system: A549
CCRF-CEM = test system: CCRF-CEM
COLO 205 = test system: COLO 205
HCC 2998 = test system: HCC 2998
HOP-92 = test system: HOP-92
786-0 = test system: 786-0
EKVX = test system: EKVX
OVCAR-4 = test system: OVCAR-4
CAKI-1 = test system: CAKI-1
MOLT-4 = test system: MOLT-4
UACC-62 = test system: UACC-62
SF-268 = test system: SF-268
SK-OV-3 = test system: SK-OV-3
OVCAR-5 = test system: OVCAR-5
SF-295 = test system: SF-295
A498 = test system: A498
KM12 = test system: KM12
UACC-257 = test system: UACC-257
MDA-N = test system: MDA-N

With Cc1ccc(C[N+](C)(C)N)cc1C the GI50 (SK-MEL-28) was > 10 µM (inactive), the GI50 (A549) was > 10 µM (inactive) and the GI50 (CCRF-CEM) was > 10 µM (inactive). For the same compound, the GI50 (COLO 205) was > 10 µM (inactive), the GI50 (HCC 2998) was > 10 µM (inactive) and the GI50 (HOP-92) was > 10 µM (inactive). The GI50 (786-0) was > 10 µM (inactive), the GI50 (EKVX) was > 10 µM (inactive) and the GI50 (OVCAR-4) was > 10 µM (inactive). For the same compound, the GI50 (CAKI-1) was > 10 µM (inactive), the GI50 (MOLT-4) was > 10 µM (inactive) and the GI50 (UACC-62) was > 10 µM (inactive). For the same compound, the GI50 (SF-268) was > 10 µM (inactive), the GI50 (SK-OV-3) was > 10 µM (inactive) and the GI50 (OVCAR-5) was > 10 µM (inactive). For the same compound, the GI50 (SF-295) was > 10 µM (inactive), the GI50 (A498) was > 10 µM (inactive) and the GI50 (KM12) was > 10 µM (inactive). For the same compound, the GI50 (UACC-257) was > 10 µM (inactive) and the GI50 (MDA-N) was > 10 µM (inactive).
In the case of CO[C@@H]1C[C@H](OC(N)=O)[C@@H]2C=C[C@@H]3/C=C(C)/C=C/[C@@H](C)[C@H](/C(C)=C/[C@@H](C)NC(C)=O)OC(=O)/C=C/C=C(C)\C=C\[C@]3(C)[C@@H]2C1 [SUPERSTOLIDE B], the GI50 (SK-MEL-28) is reported as < 0.005 µM (active), the GI50 (A549) is reported as < 0.005 µM (active) and the GI50 (CCRF-CEM) is reported as 0.107 µM (active). The GI50 (COLO 205) was < 0.005 µM (active), the GI50 (HCC 2998) was < 0.005 µM (active) and the GI50 (HOP-92) was < 0.005 µM (active). The GI50 (786-0) was < 0.005 µM (active), the GI50 (EKVX) was 0.0986 µM (active) and the GI50 (OVCAR-4) was < 0.005 µM (active). For the same compound, the GI50 (CAKI-1) was < 0.005 µM (active), the GI50 (MOLT-4) was 0.31 µM (active) and the GI50 (UACC-62) was < 0.005 µM (active). For the same compound, the GI50 (SF-268) was 0.0724 µM (active), the GI50 (SK-OV-3) was < 0.005 µM (active) and the GI50 (OVCAR-5) was 0.466 µM (active). For the same compound, the GI50 (SF-295) was < 0.005 µM (active), the GI50 (A498) was < 0.005 µM (active) and the GI50 (KM12) was < 0.005 µM (active). For the same compound, the GI50 (UACC-257) was 0.0189 µM (active) and the GI50 (MDA-N) was < 0.005 µM (active).
